Assay results as given in patent US20240041042A1, “1-(PYRIDYL)-5-AZINYLPYRAZOLE DERIVATIVES, AND THEIR USE FOR CONTROL OF UNDESIRED PLANT GROWTH” (Bayer Aktiengesellschaft, priority 2020, published 2024).

How the values were obtained:
Assay type in all cases: in vivo
[1] = system: Setaria viridis (SETVI); assay: Pre-emergence herbicidal action against SETVI
Summary of the method: (§1)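 Herbicide applied to soil before seedling emergence, at 600 l/ha spray volume with 0.5% additive and rates up to 320 g/ha. Evaluation: visual percentage effect, about 3 weeks later, greenhouse-grown pots compared with untreated ones.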

[2] = system: Echinochloa crus-galli (ECHCG); assay: Pre-emergence herbicidal action against ECHCG
Summary of the method: as §1

[3] = system: Viola tricolor (VIOTR); assay: Pre-emergence herbicidal action against VIOTR
Summary of the method: as §1

[4] = system: Lolium rigidum (LOLRI); assay: Post-emergence herbicidal action against LOLRI
Summary of the method: (§2)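 Doses of 320 g/ha or lower, suffixes a, b and c marking different dosages, were applied post-emergence at the one-leaf stage in 600 l/ha water with 0.5% additive. Damage was assessed visually after about 3 weeks in the greenhouse.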

[5] = system: Viola tricolor (VIOTR); assay: Post-emergence herbicidal action against VIOTR
Summary of the method: as §2

[6] = system: Echinochloa crus-galli (ECHCG); assay: Post-emergence herbicidal action against ECHCG
Summary of the method: as §2

[7] = system: Pharbitis purpurea (PHBPU); assay: Pre-emergence herbicidal action against PHBPU
Summary of the method: as §1

[8] = system: Polygonum convolvulus (POLCO); assay: Pre-emergence herbicidal action against POLCO
Summary of the method: as §1

[9] = system: Avena fatua (AVEFA); assay: Pre-emergence herbicidal action against AVEFA; conditions: visual scoring after about 3 weeks vs untreated controls
Summary of the method: as §1

[10] = system: Matricaria inodora (MATIN); assay: Pre-emergence herbicidal action against MATIN
Summary of the method: as §1

[11] = system: Alopecurus myosuroides (ALOMY); assay: Post-emergence herbicidal action against ALOMY; conditions: visual rating about 3 weeks after treatment vs untreated controls (100% = plants have died, 0% = like control plants)
Summary of the method: as §2

[12] = system: Verconica persica (VERPE); assay: Post-emergence herbicidal action against VERPE
Summary of the method: as §2

[13] = system: Avena fatua (AVEFA); assay: Post-emergence herbicidal action against AVEFA; conditions: visual rating about 3 weeks after treatment
Summary of the method: as §2

[14] = system: Matricaria inodora (MATIN); assay: Post-emergence herbicidal action against MATIN
Summary of the method: as §2

[15] = system: Alopecurus myosuroides (ALOMY); assay: Pre-emergence herbicidal action against ALOMY; conditions: scored visually after about 3 weeks, 100% = plants have died
Summary of the method: as §1

[16] = system: Lolium rigidum (LOLRI); assay: Pre-emergence herbicidal action against LOLRI
Summary of the method: as §1

[17] = system: Amaranthus retroflexus (AMARE); assay: Pre-emergence herbicidal action against AMARE; conditions: visual scoring after about 3 weeks vs untreated controls
Summary of the method: as §1

[18] = system: Abutilon theophrasti (ABUTH); assay: Pre-emergence herbicidal action against ABUTH; conditions: Dosage column 320 g/ha (title prints 3200 g/ha); scored visually after about 3 weeks; 100% = plants have died
Summary of the method: as §1

[19] = system: Verconica persica (VERPE); assay: Pre-emergence herbicidal action against VERPE
Summary of the method: as §1

[20] = system: Pharbitis purpurea (PHBPU); assay: Post-emergence herbicidal action against PHBPU
Summary of the method: as §2

[21] = system: Setaria viridis (SETVI); assay: Post-emergence herbicidal action against SETVI
Summary of the method: as §2

[22] = system: Amaranthus retroflexus (AMARE); assay: Post-emergence herbicidal action against AMARE
Summary of the method: as §2

[23] = system: Oryza sativa (ORYSA); conditions: crop plant compatibility, 80 g/ha, effect in comparison to untreated controls
Summary of the method: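 Percent effect on the crop was judged by eye against untreated controls, where 0% means like control and 100% means dead plants. Plants had been sprayed post-emergence at the one-leaf stage and then kept under optimum greenhouse conditions for about 3 weeks.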

| SMILES | Pre-emergence action against SETVI in % ([1]; dosage 320 g/ha) | Pre-emergence action against ECHCG in % ([2]; dosage 80 g/ha) | Pre-emergence action against ECHCG in % ([2]; dosage 320 g/ha) | Pre-emergence action against VIOTR in % ([3]; 320 g/ha, Viola tricolor) | Pre-emergence action against VIOTR in % ([3]; dosage 80 g/ha) | Post-emergence action against VIOTR in % ([5]; 80 g/ha) | Post-emergence action against VIOTR in % ([5]; 320 g/ha) | Post-emergence action against ECHCG in % ([6]; dosage 80 g/ha) | Post-emergence action against ECHCG in % ([6]; dosage 320 g/ha) | Pre-emergence action against PHBPU in % ([7]; dosage 80 g/ha) | Pre-emergence action against PHBPU in % ([7]; dosage 320 g/ha) | Pre-emergence action against POLCO in % ([8]; dosage 80 g/ha) | Pre-emergence action against POLCO in % ([8]; dosage 320 g/ha) | Pre-emergence action against AVEFA in % ([9]; 320 g/ha) | Pre-emergence action against MATIN in % ([10]; dosage 320 g/ha) | Post-emergence action against ALOMY in % ([11]; 80 g/ha) | Post-emergence action against ALOMY in % ([11]; 320 g/ha) | Post-emergence action against VERPE in % ([12]; 320 g/ha, VERPE) | Post-emergence action against VERPE in % ([12]; dosage 80 g/ha) | Post-emergence action against MATIN in % ([14]; dosage 320 g/ha) | also measured |
| --- | --- | --- | --- | --- | --- | --- | --- | --- | --- | --- | --- | --- | --- | --- | --- | --- | --- | --- | --- | --- | --- |
| CCOC(=O)[C@@H](C)Oc1nn(-c2ncccc2F)c(-c2ccc(F)nc2)c1C(F)(F)F [Example I-308] | 100% | 100% | 100% | 100% | 100% | 90% | 90% | 90% | 90% | 90% | 90% | 100% | 100% | 100% | 100% | 100% | 100% | 90% | 90% | 90% | Post-emergence action against LOLRI in % ([4]; dosage 80 g/ha): 90%; Post-emergence action against LOLRI in % ([4]; dosage 320 g/ha): 100%; Pre-emergence action against AVEFA in % ([9]; 80 g/ha): 100%; Pre-emergence action against MATIN in % ([10]; dosage 80 g/ha): 100%; Post-emergence action against AVEFA in % ([13]; 80 g/ha): 90%; Post-emergence action against AVEFA in % ([13]; 320 g/ha): 90%; Post-emergence action against MATIN in % ([14]; dosage 80 g/ha): 80%; Pre-emergence action against ALOMY ([15]; 80 g/ha): 100%; Pre-emergence action against ALOMY ([15]; 320 g/ha): 100%; Pre-emergence action against LOLRI in % ([16]; dosage 80 g/ha): 100%; Pre-emergence action against LOLRI in % ([16]; dosage 320 g/ha): 100%; Pre-emergence action against AMARE in % ([17]; 80 g/ha): 100%; Pre-emergence action against AMARE in % ([17]; 320 g/ha): 100%; Pre-emergence action against ABUTH [18]: 100%; Pre-emergence action against VERPE in % ([19]; dosage 80 g/ha): 100%; Pre-emergence action against VERPE in % ([19]; dosage 320 g/ha): 100%; Post-emergence action against PHBPU in % ([20]; dosage 320 g/ha): 90% |
| Cc1cccnc1-n1nc(OCC(=O)O)c(Br)c1-c1cncc(F)c1 [Example I-204] | 100% | 90% | 100% | 100% | 100% | 80% | 80% | 80% | 80% | 90% | 90% | 90% | 90% | 80% | 90% | 90% | 90% | 90% | 90% | 80% | Pre-emergence action against SETVI in % ([1]; dosage 80 g/ha): 90%; Post-emergence action against SETVI in % ([21]; dosage 80 g/ha): 90%; Post-emergence action against SETVI in % ([21]; dosage 320 g/ha): 90%; Post-emergence action against AMARE in % ([22]; 80 g/ha, visual rating about 3 weeks after treatment vs untreated controls (100% = plants have died, 0% = like control plants)): 80%; Post-emergence action against AMARE in % ([22]; 320 g/ha, visual rating about 3 weeks after treatment): 80%; Post-emergence action against ORYSA in % [23]: 0%; Post-emergence action against AVEFA in % ([13]; 320 g/ha): 80%; Pre-emergence action against ALOMY ([15]; 80 g/ha): 90%; Pre-emergence action against ALOMY ([15]; 320 g/ha): 100%; Pre-emergence action against AMARE in % ([17]; 80 g/ha): 90%; Pre-emergence action against AMARE in % ([17]; 320 g/ha): 100%; Pre-emergence action against ABUTH [18]: 80%; Pre-emergence action against VERPE in % ([19]; dosage 320 g/ha): 100%; Post-emergence action against PHBPU in % ([20]; dosage 320 g/ha): 80% |
| CCOC(=O)COc1nn(-c2ncccc2C)c(-c2cncc(F)c2)c1Br [Example I-211] | 100% | 90% | 100% | 100% | 90% | 80% | 90% | 80% | 80% | 90% | 90% | 90% | 90% | 90% | 90% | 80% | 90% | 90% | 80% | 80% | Pre-emergence action against SETVI in % ([1]; dosage 80 g/ha): 90%; Post-emergence action against SETVI in % ([21]; dosage 80 g/ha): 80%; Post-emergence action against SETVI in % ([21]; dosage 320 g/ha): 80%; Post-emergence action against LOLRI in % ([4]; dosage 320 g/ha): 80%; Pre-emergence action against MATIN in % ([10]; dosage 80 g/ha): 90%; Post-emergence action against MATIN in % ([14]; dosage 80 g/ha): 80%; Pre-emergence action against ALOMY ([15]; 80 g/ha): 80%; Pre-emergence action against ALOMY ([15]; 320 g/ha): 100%; Pre-emergence action against LOLRI in % ([16]; dosage 320 g/ha): 80%; Pre-emergence action against AMARE in % ([17]; 80 g/ha): 100%; Pre-emergence action against AMARE in % ([17]; 320 g/ha): 100%; Pre-emergence action against ABUTH [18]: 80%; Pre-emergence action against VERPE in % ([19]; dosage 320 g/ha): 100%; Post-emergence action against PHBPU in % ([20]; dosage 80 g/ha): 90%; Post-emergence action against PHBPU in % ([20]; dosage 320 g/ha): 100% |
